According to paper PMC7497403, “Development of Potent PfCLK3 Inhibitors Based on TCMDC-135051 as a New Class of Antimalarials” (Journal of Medicinal Chemistry, 2020):

Experiments:
Assay in all cases: Kinase screen
Format in all cases: biochemical
HIPK3 = HIPK3 (Homo sapiens, UniProt Q9H422)
From the text: (§1) With verapamil used as a positive control.
(§2) V. Distribution coefficient (LogD7.4)

GCK = GCK (Homo sapiens, UniProt Q12851)
From the text: as §1, §2

MAPKAP-K2 = MAPKAP-K2 (Homo sapiens, UniProt P49137)
From the text: as §1, §2

DDR2 = DDR2 (Homo sapiens, UniProt Q16832)
From the text: as §1, §2

CHK1 = CHK1 (Homo sapiens, UniProt O14757)
From the text: as §1, §2

MNK2 = MNK2 (Homo sapiens, UniProt Q9HBH9)
From the text: as §1, §2

NEK2a = NEK2a (Homo sapiens, UniProt P51955)
From the text: as §1, §2

EPH-B4 = EPH-B4 (Homo sapiens, UniProt P54760)
From the text: as §1, §2

TSSK1 = TSSK1 (Homo sapiens, UniProt Q9BXA7)
From the text: as §1, §2

Src = Src (Homo sapiens, UniProt P12931)
From the text: as §1, §2

PKBb = PKBb (Homo sapiens, UniProt P31751)
From the text: as §1, §2

OSR1 = OSR1 (Homo sapiens, UniProt O95747)
From the text: as §1, §2

EF2K = EF2K (Homo sapiens, UniProt O00418)
From the text: as §1, §2

ASK1 = ASK1 (Homo sapiens, UniProt Q99683)
From the text: as §1, §2

MAP4K5 = MAP4K5 (Homo sapiens, UniProt Q9Y4K4)
From the text: as §1, §2

PAK6 = PAK6 (Homo sapiens, UniProt Q9NQU5)
From the text: as §1, §2

EPH-A4 = EPH-A4 (Homo sapiens, UniProt P54764)
From the text: as §1, §2

ULK1 = ULK1 (Homo sapiens, UniProt O75385)
From the text: as §1, §2

IGF-1R = IGF-1R (Homo sapiens, UniProt P08069)
From the text: as §1, §2

PKA = PKA (Homo sapiens, UniProt P17612)
From the text: as §1, §2

ZAP70 = ZAP70 (Homo sapiens, UniProt P43403)
From the text: as §1, §2

NUAK1 = NUAK1 (Homo sapiens, UniProt O60285)
From the text: as §1, §2

MARK4 = MARK4 (Homo sapiens, UniProt Q96L34)
From the text: as §1, §2

PIM1 = PIM1 (Homo sapiens, UniProt P11309)
From the text: as §1, §2

PRAK = PRAK (Homo sapiens, UniProt Q8IW41)
From the text: as §1, §2

MKK1 = MKK1 (Homo sapiens, UniProt Q02750)
From the text: as §1, §2

TLK1 = TLK1 (Homo sapiens, UniProt Q9UKI8)
From the text: as §1, §2

TBK1 = TBK1 (Homo sapiens, UniProt Q9UHD2)
From the text: as §1, §2

MINK1 = MINK1 (Homo sapiens, UniProt Q8N4C8)
From the text: as §1, §2

LKB1 = LKB1 (Homo sapiens, UniProt Q15831)
From the text: as §1, §2

MLK3 = MLK3 (Homo sapiens, UniProt Q16584)
From the text: as §1, §2

TAO1 = TAO1 (Homo sapiens, UniProt Q7L7X3)
From the text: as §1, §2

Aurora A = Aurora A (Homo sapiens, UniProt O14965)
From the text: as §1, §2

TTBK1 = TTBK1 (Homo sapiens, UniProt Q5TCY1)
From the text: as §1, §2

MST3 = MST3 (Homo sapiens, UniProt Q9Y6E0)
From the text: as §1, §2

SIK2 = SIK2 (Homo sapiens, UniProt Q9H0K1)
From the text: as §1, §2

IKKe = IKKe (Homo sapiens, UniProt Q14164)
From the text: as §1, §2

SYK = SYK (Homo sapiens, UniProt P43405)
From the text: as §1, §2

STK33 = STK33 (Homo sapiens, UniProt Q9BYT3)
From the text: as §1, §2

EPH-B1 = EPH-B1 (Homo sapiens, UniProt P54762)
From the text: as §1, §2

PKD1 = PKD1 (Homo sapiens, UniProt Q15139)
From the text: as §1, §2

MAPKAP-K3 = MAPKAP-K3 (Homo sapiens, UniProt Q16644)
From the text: as §1, §2

VEG-FR = VEG-FR (Homo sapiens, UniProt P17948)
From the text: as §1, §2

BTK = BTK (Homo sapiens, UniProt Q06187)
From the text: as §1, §2

ERK1 = ERK1 (Homo sapiens, UniProt P27361)
From the text: as §1, §2

ERK8 = ERK8 (Homo sapiens, UniProt Q8TD08)
From the text: as §1, §2

CHK1, sequence (O14757 whole entry): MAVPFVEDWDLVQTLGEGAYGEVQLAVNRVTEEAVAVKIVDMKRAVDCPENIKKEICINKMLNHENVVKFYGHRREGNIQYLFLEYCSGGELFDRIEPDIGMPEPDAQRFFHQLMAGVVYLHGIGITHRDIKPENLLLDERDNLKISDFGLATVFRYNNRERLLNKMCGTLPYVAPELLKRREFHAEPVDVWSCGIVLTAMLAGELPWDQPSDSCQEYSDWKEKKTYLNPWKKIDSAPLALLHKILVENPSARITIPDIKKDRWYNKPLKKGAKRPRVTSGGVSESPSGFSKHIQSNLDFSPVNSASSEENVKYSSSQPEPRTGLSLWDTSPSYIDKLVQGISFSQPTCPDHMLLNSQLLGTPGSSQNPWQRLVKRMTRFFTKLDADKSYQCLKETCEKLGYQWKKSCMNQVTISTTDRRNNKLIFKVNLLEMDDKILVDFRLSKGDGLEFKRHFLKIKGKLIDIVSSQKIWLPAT
PAK6, sequence (Q9NQU5 whole entry): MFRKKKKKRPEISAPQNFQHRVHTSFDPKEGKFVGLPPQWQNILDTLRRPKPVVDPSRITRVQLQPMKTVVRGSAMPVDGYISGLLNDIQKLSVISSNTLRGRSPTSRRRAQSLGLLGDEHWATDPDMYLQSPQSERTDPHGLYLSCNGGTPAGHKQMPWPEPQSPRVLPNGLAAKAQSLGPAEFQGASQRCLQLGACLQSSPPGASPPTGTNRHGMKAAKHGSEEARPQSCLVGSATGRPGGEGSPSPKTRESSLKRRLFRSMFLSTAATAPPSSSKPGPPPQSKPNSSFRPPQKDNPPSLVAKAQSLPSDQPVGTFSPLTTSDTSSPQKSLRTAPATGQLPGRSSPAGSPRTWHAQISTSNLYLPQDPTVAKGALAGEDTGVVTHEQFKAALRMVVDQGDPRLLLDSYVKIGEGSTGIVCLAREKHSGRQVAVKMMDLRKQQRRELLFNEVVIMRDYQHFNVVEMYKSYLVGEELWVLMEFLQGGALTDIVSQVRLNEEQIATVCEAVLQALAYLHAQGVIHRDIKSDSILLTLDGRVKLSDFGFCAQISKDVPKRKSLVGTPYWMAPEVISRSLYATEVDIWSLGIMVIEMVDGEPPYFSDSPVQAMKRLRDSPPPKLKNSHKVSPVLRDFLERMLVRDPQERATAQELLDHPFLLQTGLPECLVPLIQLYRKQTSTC
MAP4K5, sequence (Q9Y4K4 whole entry): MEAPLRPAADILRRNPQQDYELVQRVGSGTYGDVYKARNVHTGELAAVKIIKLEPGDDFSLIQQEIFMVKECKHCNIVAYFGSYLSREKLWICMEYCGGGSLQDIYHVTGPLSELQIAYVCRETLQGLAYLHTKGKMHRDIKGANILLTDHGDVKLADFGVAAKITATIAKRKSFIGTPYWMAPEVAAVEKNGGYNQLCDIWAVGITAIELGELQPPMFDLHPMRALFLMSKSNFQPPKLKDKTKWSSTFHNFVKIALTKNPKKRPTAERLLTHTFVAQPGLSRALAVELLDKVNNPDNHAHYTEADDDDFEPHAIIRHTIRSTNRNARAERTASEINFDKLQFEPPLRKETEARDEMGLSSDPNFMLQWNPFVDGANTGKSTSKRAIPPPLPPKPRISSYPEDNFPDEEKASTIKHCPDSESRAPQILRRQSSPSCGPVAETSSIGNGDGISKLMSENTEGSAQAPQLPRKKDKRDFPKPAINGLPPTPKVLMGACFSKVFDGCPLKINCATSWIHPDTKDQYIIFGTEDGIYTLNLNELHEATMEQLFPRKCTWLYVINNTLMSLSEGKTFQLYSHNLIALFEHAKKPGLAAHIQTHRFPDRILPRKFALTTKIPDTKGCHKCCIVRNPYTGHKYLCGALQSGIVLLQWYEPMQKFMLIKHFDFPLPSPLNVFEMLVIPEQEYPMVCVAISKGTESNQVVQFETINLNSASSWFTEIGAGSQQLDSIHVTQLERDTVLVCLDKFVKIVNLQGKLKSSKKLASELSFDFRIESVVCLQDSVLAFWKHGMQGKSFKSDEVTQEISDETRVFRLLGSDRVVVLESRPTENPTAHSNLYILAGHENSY
PKD1, sequence (Q15139 whole entry): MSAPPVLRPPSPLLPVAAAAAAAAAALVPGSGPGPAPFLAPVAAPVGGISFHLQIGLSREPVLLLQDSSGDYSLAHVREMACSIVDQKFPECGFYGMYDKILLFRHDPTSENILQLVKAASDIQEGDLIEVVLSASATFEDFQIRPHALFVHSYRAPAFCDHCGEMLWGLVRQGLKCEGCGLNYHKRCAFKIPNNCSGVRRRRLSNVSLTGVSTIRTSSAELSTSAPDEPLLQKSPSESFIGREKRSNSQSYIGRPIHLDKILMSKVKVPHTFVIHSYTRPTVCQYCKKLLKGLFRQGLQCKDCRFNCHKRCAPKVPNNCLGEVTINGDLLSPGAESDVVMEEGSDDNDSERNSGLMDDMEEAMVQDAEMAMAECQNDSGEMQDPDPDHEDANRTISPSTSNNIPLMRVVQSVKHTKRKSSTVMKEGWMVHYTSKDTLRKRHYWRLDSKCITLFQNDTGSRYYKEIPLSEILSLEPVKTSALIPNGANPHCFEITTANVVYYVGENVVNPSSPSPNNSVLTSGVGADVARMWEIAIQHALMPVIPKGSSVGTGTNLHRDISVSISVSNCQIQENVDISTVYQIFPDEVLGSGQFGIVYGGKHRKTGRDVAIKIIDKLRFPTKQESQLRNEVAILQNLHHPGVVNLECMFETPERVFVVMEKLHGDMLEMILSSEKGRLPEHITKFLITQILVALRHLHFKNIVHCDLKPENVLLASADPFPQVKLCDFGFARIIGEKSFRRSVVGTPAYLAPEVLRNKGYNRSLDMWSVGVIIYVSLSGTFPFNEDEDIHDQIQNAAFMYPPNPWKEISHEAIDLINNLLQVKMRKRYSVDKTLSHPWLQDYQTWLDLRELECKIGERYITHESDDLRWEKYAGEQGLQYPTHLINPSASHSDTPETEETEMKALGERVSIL
TAO1, sequence (Q7L7X3 whole entry): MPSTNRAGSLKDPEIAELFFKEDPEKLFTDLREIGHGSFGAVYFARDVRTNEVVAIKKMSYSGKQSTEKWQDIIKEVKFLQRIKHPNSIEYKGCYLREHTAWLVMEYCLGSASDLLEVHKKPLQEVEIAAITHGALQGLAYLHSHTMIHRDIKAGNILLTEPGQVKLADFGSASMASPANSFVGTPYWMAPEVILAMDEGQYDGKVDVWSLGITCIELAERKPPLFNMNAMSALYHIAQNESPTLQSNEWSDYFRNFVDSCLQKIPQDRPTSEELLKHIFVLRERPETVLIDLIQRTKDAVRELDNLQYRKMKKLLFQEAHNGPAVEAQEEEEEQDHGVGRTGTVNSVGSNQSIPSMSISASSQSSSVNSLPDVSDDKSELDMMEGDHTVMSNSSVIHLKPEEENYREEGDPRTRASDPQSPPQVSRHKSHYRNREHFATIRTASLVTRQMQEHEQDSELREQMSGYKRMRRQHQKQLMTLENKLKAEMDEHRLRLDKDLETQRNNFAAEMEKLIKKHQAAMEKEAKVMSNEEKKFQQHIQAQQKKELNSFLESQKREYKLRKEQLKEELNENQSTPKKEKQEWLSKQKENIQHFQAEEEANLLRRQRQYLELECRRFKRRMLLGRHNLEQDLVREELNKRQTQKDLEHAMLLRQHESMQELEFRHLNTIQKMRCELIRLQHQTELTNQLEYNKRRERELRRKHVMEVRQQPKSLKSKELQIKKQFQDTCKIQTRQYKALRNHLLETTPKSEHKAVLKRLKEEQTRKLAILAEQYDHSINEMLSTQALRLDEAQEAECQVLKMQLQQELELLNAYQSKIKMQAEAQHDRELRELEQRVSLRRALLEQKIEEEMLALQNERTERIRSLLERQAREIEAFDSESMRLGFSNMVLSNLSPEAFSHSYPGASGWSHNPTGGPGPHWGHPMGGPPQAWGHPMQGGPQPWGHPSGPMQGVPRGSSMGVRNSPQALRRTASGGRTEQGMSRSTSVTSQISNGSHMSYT
PRAK, sequence (Q8IW41 whole entry): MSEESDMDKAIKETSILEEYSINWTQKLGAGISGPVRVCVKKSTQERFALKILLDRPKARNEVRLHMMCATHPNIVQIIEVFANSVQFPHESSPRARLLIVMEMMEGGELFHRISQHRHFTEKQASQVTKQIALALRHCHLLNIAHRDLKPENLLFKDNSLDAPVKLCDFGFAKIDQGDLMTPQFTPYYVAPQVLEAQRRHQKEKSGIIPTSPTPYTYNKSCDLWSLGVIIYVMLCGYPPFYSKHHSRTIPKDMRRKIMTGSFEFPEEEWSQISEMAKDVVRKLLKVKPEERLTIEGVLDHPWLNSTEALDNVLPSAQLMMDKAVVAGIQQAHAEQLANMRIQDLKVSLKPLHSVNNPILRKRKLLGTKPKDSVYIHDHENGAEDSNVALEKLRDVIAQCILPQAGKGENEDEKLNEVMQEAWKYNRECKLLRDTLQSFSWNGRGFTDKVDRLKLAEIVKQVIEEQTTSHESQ
BTK, sequence (Q06187 whole entry): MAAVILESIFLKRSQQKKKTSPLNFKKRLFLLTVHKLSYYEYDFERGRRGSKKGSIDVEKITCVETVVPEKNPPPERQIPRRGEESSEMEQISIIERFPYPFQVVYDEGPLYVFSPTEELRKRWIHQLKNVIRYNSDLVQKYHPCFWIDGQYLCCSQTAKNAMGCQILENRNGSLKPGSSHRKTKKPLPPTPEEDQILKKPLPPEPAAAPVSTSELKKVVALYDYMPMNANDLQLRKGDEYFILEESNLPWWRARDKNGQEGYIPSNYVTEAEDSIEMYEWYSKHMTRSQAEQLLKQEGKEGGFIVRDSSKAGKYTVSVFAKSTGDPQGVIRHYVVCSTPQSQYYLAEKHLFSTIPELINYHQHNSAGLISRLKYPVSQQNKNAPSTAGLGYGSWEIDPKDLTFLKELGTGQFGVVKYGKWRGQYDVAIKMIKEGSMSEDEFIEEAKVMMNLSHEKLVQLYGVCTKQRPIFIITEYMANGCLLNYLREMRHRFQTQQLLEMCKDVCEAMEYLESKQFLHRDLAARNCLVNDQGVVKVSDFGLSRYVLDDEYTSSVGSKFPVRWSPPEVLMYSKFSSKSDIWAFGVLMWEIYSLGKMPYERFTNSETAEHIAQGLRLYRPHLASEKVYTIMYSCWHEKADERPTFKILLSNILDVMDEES

CCN(CC)Cc1ccc(OC)c(-c2cc3c(-c4ccc(C(=O)O)c(C(C)C)c4)ccnc3[nH]2)c1 [analogue 1, 4-(2-(5-((Diethylamino)methyl)-2-methoxyphenyl)-1H-pyrrolo[2,3-b]pyridin-4-yl)-2-isopropylbenzoic Acid]
activity at 1 µM (HIPK3): 93%
activity at 1 µM (GCK): 31%
activity at 1 µM (MAPKAP-K2): 102%
activity at 1 µM (DDR2): 21%
activity at 1 µM (CHK1): 78%
activity at 1 µM (MNK2): 29%
activity at 1 µM (NEK2a): 87%
activity at 1 µM (EPH-B4): 82%
activity at 1 µM (TSSK1): 55%
activity at 1 µM (Src): 42%
activity at 1 µM (PKBb): 96%
activity at 1 µM (OSR1): 38%
activity at 1 µM (EF2K): 113%
activity at 1 µM (ASK1): 91%
activity at 1 µM (MAP4K5): 14%
activity at 1 µM (PAK6): 92%
activity at 1 µM (EPH-A4): 83%
activity at 1 µM (ULK1): 80%
activity at 1 µM (IGF-1R): 51%
activity at 1 µM (PKA): 103%
activity at 1 µM (ZAP70): 59%
activity at 1 µM (NUAK1): 18%
activity at 1 µM (MARK4): 59%
activity at 1 µM (PIM1): 107%
activity at 1 µM (PRAK): 88%
activity at 1 µM (MKK1): 79%
activity at 1 µM (TLK1): 106%
activity at 1 µM (TBK1): 66%
activity at 1 µM (MINK1): 44%
activity at 1 µM (LKB1): 115%
activity at 1 µM (MLK3): 107%
activity at 1 µM (TAO1): 39%
activity at 1 µM (Aurora A): 17%
activity at 1 µM (TTBK1): 102%
activity at 1 µM (MST3): 62%
activity at 1 µM (SIK2): 41%
activity at 1 µM (IKKe): 52%
activity at 1 µM (SYK): 89%
activity at 1 µM (STK33): 44%
activity at 1 µM (EPH-B1): 124%
activity at 1 µM (PKD1): 85%
activity at 1 µM (MAPKAP-K3): 110%
activity at 1 µM (VEG-FR): 80%
activity at 1 µM (BTK): 119%
activity at 1 µM (ERK1): 100%
activity at 1 µM (ERK8): 55%
